# Reference: ChEMBL document CHEMBL5505974, “Design, synthesis, and bioactivity evaluation of novel indole-selenide derivatives as P-glycoprotein inhibitors against multi-drug resistance in MCF-7/ADR cell” (Eur J Med Chem, 2024)
# Activity calls are given as the source filed them. The calls are words filed in the database; no cut-off is given here.
# Tests used:
# [1] = tested on: NCI/ADR-RES; assay: Cytotoxicity against doxorubicin resistant human MCF-7/ADR cells assessed as inhibition rate at 5 uM incubated for 48 hrs by CCK8 assay relative to control; assay type: functional
# [2] = tested on: NCI/ADR-RES; assay: Reversal fold, ratio of doxorubicin IC50 to doxorubicin IC50 in presence of test compound for reversal of P-gp mediated multidrug resistance in doxorubicin resistant human MCF-7/ADR cells incubated for 48 hrs by CCK-8 assay; assay type: functional
# [3] = tested on: MCF7; assay: Cytotoxicity against chemo-sensitive human MCF7 cells assessed as inhibition rate at 5 uM incubated for 48 hrs by CCK8 assay relative to control; assay type: functional
# [4] = target: T1, ATP-dependent translocase ABCB1 (Homo sapiens, UniProt P08183); assay: Inhibition of P-gp-mediated rhodamine-123 efflux in doxorubicin-resistant human MCF-7/ADR cells assessed as increase in Rh123 accumulation incubated for 4 hrs by fluorescence microscopic analysis; assay type: cell-based; conditions: at 0.1 to 10 µM, dose 0.1-10 µM
# T1 sequence (P08183 whole entry): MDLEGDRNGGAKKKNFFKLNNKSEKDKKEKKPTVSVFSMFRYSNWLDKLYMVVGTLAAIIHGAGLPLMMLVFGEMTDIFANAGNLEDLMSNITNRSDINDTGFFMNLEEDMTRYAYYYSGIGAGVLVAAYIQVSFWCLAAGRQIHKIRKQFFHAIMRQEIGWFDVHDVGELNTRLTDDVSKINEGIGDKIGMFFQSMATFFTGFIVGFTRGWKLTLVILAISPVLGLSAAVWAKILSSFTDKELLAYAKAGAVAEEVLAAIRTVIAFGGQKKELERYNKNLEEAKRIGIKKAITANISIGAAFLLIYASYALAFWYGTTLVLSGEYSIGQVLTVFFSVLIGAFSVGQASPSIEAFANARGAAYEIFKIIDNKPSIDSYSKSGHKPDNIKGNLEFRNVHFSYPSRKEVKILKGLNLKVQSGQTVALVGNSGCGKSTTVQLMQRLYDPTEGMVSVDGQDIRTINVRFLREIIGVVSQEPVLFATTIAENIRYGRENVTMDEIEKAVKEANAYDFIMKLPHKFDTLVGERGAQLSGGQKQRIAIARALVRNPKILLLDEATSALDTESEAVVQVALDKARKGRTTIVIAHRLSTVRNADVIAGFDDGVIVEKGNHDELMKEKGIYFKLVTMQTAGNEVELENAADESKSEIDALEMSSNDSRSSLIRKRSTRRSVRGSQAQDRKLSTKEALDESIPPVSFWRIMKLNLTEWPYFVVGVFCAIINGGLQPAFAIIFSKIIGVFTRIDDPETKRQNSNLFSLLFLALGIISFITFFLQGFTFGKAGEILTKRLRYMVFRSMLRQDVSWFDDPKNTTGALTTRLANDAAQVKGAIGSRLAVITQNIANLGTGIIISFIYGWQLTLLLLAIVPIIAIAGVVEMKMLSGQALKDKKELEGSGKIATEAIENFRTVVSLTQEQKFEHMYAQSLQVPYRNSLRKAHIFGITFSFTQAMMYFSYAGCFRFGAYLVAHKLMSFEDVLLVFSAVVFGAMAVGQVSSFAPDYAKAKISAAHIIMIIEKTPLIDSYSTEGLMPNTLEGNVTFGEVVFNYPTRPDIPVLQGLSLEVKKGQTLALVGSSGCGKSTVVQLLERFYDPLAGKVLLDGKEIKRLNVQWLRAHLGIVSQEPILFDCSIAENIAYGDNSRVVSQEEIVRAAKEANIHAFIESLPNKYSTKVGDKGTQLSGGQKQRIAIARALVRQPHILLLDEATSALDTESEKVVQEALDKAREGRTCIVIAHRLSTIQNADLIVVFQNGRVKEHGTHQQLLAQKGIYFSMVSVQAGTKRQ
# [5] = target: T1, ATP-dependent translocase ABCB1; assay: Inhibition of P-gp in doxorubicin resistant human MCF-7/ADR cells assessed as increase in UIC-2 binding to cell at 50 uM incubated for 10 mins by UIC-2 reactivity shift assay; assay type: cell-based
# [6] = tested on: NCI/ADR-RES; assay: Effect on P-gp expression level in doxorubicin-resistant human MCF-7/ADR cells at 0.5 to 5 uM incubated for 48 hrs by Western blot analysis; assay type: functional, cell-based; conditions: dose 0.5-5 µM
inhibition (INH) [4],inhibition (INH) [5],Structure (SMILES),inhibition at 5 µM [1] [%],Ratio IC50 [2],inhibition at 5 µM [3] [%],Activity [6]
,,C/C=C/C[C@@H](C)[C@@H](O)[C@H]1C(=O)N[C@@H](CC)C(=O)N(C)CC(=O)N(C)[C@@H](CC(C)C)C(=O)N[C@@H](C(C)C)C(=O)N(C)[C@@H](CC(C)C)C(=O)N[C@@H](C)C(=O)N[C@H](C)C(=O)N(C)[C@@H](CC(C)C)C(=O)N(C)[C@@H](CC(C)C)C(=O)N(C)[C@@H](C(C)C)C(=O)N1C [CYCLOSPORINE],25.6,,,
,,O=C(NCc1ccccn1)c1cccc([Se]c2c[nH]c3ccc(F)cc23)c1,13.5,2.7,3.6,
,,CNC(=O)c1ccc2c([Se]c3cccc(C(=O)NCc4ccccn4)c3)c[nH]c2c1,10.8,1.2,13.3,
,,COc1ccc(CNC(=O)c2cccc([Se]c3c[nH]c4ccccc34)c2)cc1OC,15.4,2.4,8.6,
,,CNC(=O)c1ccc2[nH]cc([Se]c3cccc(C(=O)NCc4ccccn4)c3)c2c1,12.8,5.7,15.1,
,,COc1cc2c(cc1OC)CN(C(=O)c1cccc([Se]c3c[nH]c4ccc(C(=O)Nc5ccc(F)cc5)cc34)c1)CC2,1.3,6.9,9.6,
,,COc1ccc(NC(=O)c2cccc([Se]c3c[nH]c4ccccc34)c2)cc1OC,9.2,5.67,5.2,
,,COc1ccc(NC(=O)c2cccc([Se]c3c[nH]c4ccc(-c5cnn(C)c5)cc34)c2)cc1OC,47,98.4,35.6,
,,CN(C)CCNC(=O)c1ccc2[nH]cc([Se]c3cccc(C(=O)NCc4ccccn4)c3)c2c1,20.9,3.6,15.5,
,,COc1ccc(-c2ccc(C(=O)N3CCc4cc(OC)c(OC)cc4C3)o2)cc1,16.3,23.7,11.7,
,,O=C(NCc1ccccn1)c1ccc([Se]c2c[nH]c3ccccc23)cc1,2.2,1.65,0.2,
,,COc1ccc(NC(=O)c2ccc([Se]c3c[nH]c4ccccc34)cc2)cc1OC,7.3,3.98,5.5,
,,COc1cc2c(cc1OC)CN(C(=O)c1cccc([Se]c3c[nH]c4ccc(C(=O)NC(C)C)cc34)c1)CC2,13,3.9,11.2,
,,COc1ccc(NC(=O)c2cccc([Se]c3c[nH]c4ncccc34)c2)cc1OC,2,4.2,6.3,
Dose-Dependent Effect,Active,COc1cc2c(cc1OC)CN(C(=O)c1cccc([Se]c3c[nH]c4ccc(-c5cnn(C)c5)cc34)c1)CC2,33.7,271.7,21.1,inactive
,,COc1cc2c(cc1OC)CN(C(=O)c1cccc([Se]c3c[nH]c4ccc(C(=O)NCCN(C)C)cc34)c1)CC2,13.6,7.5,9.7,
,,COc1ccc(Cn2cc([Se]c3cccc(C(=O)N4CCc5cc(OC)c(OC)cc5C4)c3)c3ccccc32)cc1,4.7,25.8,10.5,
,,COc1ccc(CNC(=O)c2cccc([Se]c3c[nH]c4ncccc34)c2)cc1OC,13.4,4,15.7,

inhibition (INH) [4],inhibition (INH) [5],Structure (SMILES),inhibition at 5 µM [1] [%],Ratio IC50 [2],inhibition at 5 µM [3] [%],Activity [6]
,,CNC(=O)c1ccc2[nH]cc([Se]c3cccc(C(=O)N4CCc5cc(OC)c(OC)cc5C4)c3)c2c1,9.4,5.1,1.2,
,,COc1cc2c(cc1OC)CN(C(=O)c1cccc([Se]c3c[nH]c4ccccc34)c1)CC2,11.2,4.12,1.8,
,,COc1cc2c(cc1OC)CN(C(=O)c1ccc([Se]c3c[nH]c4ccccc34)cc1)CC2,3.2,3.06,1.2,
,,COc1ccc(NC(=O)c2ccc3[nH]cc([Se]c4cccc(C(=O)N5CCc6cc(OC)c(OC)cc6C5)c4)c3c2)cc1,8.7,9.1,5.9,
,,COc1cc2c(cc1OC)CN(C(=O)c1cccc([Se]c3c[nH]c4ccc(F)cc34)c1)CC2,26,95.1,17.4,
,,O=C(NCc1ccccn1)c1cccc([Se]c2c[nH]c3ccccc23)c1,15.1,8.49,17.5,
,,COc1ccc(CCN(C)CCCC(C#N)(c2ccc(OC)c(OC)c2)C(C)C)cc1OC (centres undefined),,,8.3,
,,COc1cc2c(cc1OC)CN(CCc1ccc(NC(=O)c3cc(OC)c(OC)cc3NC(=O)c3cnc4ccccc4c3)cc1)CC2,45.1,261.6,36.9,
,,O=C(NCc1ccccn1)c1cccc([Se]c2c[nH]c3ncccc23)c1,3,2,1,
,,COc1cc2c(cc1OC)CN(C(=O)c1cccc([Se]c3c[nH]c4ncccc34)c1)CC2,5.8,2.8,7.7,
,,COc1cc2c(cc1OC)CN(C(=O)c1cccc(Sc3c[nH]c4ccc(-c5cnn(C)c5)cc34)c1)CC2,19.6,46.3,22.7,
,,O=C(NCc1ccccn1)c1cccc([Se]c2c[nH]c3ccc(C(=O)Nc4ccc(F)cc4)cc23)c1,10.1,2.7,7,
,,COc1ccc(Cn2cc([Se]c3cccc(C(=O)Nc4ccc(OC)c(OC)c4)c3)c3ccccc32)cc1,7,16.4,4.2,
,,COc1ccc(CNC(=O)c2ccc([Se]c3c[nH]c4ccccc34)cc2)cc1OC,18.3,3.61,11.9,
,,COc1ccc(NC(=O)c2ccc3[nH]cc([Se]c4cccc(C(=O)Nc5ccc(OC)c(OC)c5)c4)c3c2)cc1,1.7,5.2,5.2,
,,CNC(=O)c1cccc2c([Se]c3cccc(C(=O)NCc4ccccn4)c3)c[nH]c12,13.2,2,9.2,
,,COc1ccc(NC(=O)c2ccc3[nH]cc([Se]c4cccc(C(=O)NCc5ccccn5)c4)c3c2)cc1,9,4.4,6.6,
